In article PMC5344539, “Nematode neuropeptides as transgenic nematicides” (PLoS Pathogens, 2017):
“Also recorded” adds a separate entry of the source.

Legend:
M. incognita J2s [1] = assay: Serotonin-induced stylet thrusting assay; format: in vivo, Meloidogyne incognita; conditions: for effect on serotonergic-induced stylet thrusting (in words): 100 μM uNLP, 24 h, 5 mM serotonin, relative to controls; for % Thrusting: Fig 1C, J2s incubated in 100 μM uNLP for 24 h, stylet thrusts in 5 mM serotonin, counted 1 min, normalised to control = 100%, mean, at least 30 J2s
Description: (§1) Predicted uNLPs from both M. incognita and G. pallida were synthesised by EZBiolab and dissolved into pH adjusted ddH2O to make a 5 mM stock which was aliquoted and stored at -20°C. J2s of both M. incognita and G. pallida were incubated for 24 hours in 200 μl of each peptide in a 24 well plate (SPL Lifesciences, South Korea) at a defined concentration.
(§2) Stylet thrusting assays where performed by incubating 100 M. incognita or G. pallida J2s for 15 minute in 5 mM or 2 mM serotonin (Sigma Aldrich, USA), respectively. J2s were placed on a glass slide and stylet thrusts were counted for randomly selected J2s, for 1 minute each. Counts for a given cohort of J2s were taken in a maximum interval of 15 minutes. Longer counting intervals, making for longer serotonin incubations, yielded inconsistent results. At least 30 J2s were counted for each neuropeptide treatment.

M. incognita J2s [2] = assay: Chemosensory (chemotaxis) assay of uNLP pre-treated J2s towards tomato root exudate; format: in vivo, Meloidogyne incognita; conditions: for effect on chemosensation (in words): 100 μM uNLP, 24 h, relative to controls; for CI score: Fig 1A, J2s incubated in 100 μM uNLP for 24 h, tomato cv. Moneymaker root exudate vs water agar plugs, counted after 3 h, mean of 10 replicates of 100 J2s, control 0.4426
Description: as §1
(§3) A 60 mm Petri dish was divided into two segments, a positive and a negative side, with a 0.5 cm 'dead zone' either side of the centre point. The petri dish was filled with 15 ml of 0.25% w/v agar which was allowed to solidify. 3 ml of 0.25% w/v agar slurry in spring water (pH 7, agitated with a magnetic stirrer for several hours to give a smooth consistency) was added to the petri dish and spread evenly over the surface. Root diffusate (attractant) and water only (control) 0.25% agar plugs were embedded in the agar slurry, either side of the assay arena. Root diffusate was collected from 10 tomato plants, aged 3–6 weeks in 1 litre pots, by pouring 500 ml of ddH20 through the soil three times. Diffusate from each plant was combined, filter sterilised and stored at 4°C for a maximum of 1 month. Root diffusate agar plugs were made by melting 1.25% agar in ddH20, cooling to 50°C before mixing with 4 parts of root diffusate. The agar was then allowed to solidify at room temperature. 100 uNLP pre-treated M. incognita or G. pallida J2s were added by pipette to the centre of the plate. J2s which moved out of the 'dead zone' after 3 hours were counted and their location (+/-) scored. The distribution of J2s were used to create a chemotaxis index for each plate, which formed one replicate, a total of 10 replicates where completed for each uNLP treatment.

M. incognita J2s [3] = assay: Tomato invasion assay with uNLP pre-treated J2s; format: in vivo, Meloidogyne incognita; conditions: for effect on host invasion (in words): 100 μM uNLP, 24 h, tomato cv. Moneymaker, relative to controls; for % Invasion: Fig 1B, 500 J2s incubated in 100 μM uNLP for 24 h, single tomato seedling, 24 h at 23°C, normalised to negative control = 100%, mean
Description: as §1
(§4) Tomato seeds were sterilised with 2.5% NaOCl for 15 minutes, washed 5 times in ddH20 and germinated on 0.5% Murashige and Skoog plates at 23°C. […] Invasion assays were performed by mixing 500 pre-treated M. incognita or G. pallida J2s with agar slurry and a single tomato seedling (2 days post germination) in a 6 well plate. Assays were left at 23°C for 24 hours in the case of M. incognita and at 18°C for 24 hours in the case of G. pallida under a 16 hour light and 8 hour darkness cycle. Seedlings were stained using acid fuschin [69] and the number of nematodes within the roots counted. At least five seedlings were used for M. incognita infections assays, with at least 15 seedlings used for G. pallida infections assays (due to increased variation).

G. pallida J2s [4] = assay: Chemosensory (chemotaxis) assay of uNLP pre-treated J2s towards tomato root exudate; format: in vivo, Globodera pallida; conditions: for CI score: Fig 2A, J2s incubated in 100 μM uNLP for 24 h, tomato cv. Moneymaker root exudate vs water agar plugs, counted after 3 h, mean of 10 replicates of 100 J2s, control 0.4154; for effect on chemosensation (in words): 100 μM uNLP, 24 h, relative to controls
Description: as §1, §3

G. pallida J2s [5] = assay: Serotonin-induced stylet thrusting assay; format: in vivo, Globodera pallida; conditions: for effect on serotonergic-induced stylet thrusting (in words): 100 μM uNLP, 24 h, 2 mM serotonin, relative to controls; for % Thrusting: Fig 2C, J2s incubated in 100 μM uNLP for 24 h, stylet thrusts in 2 mM serotonin, counted 1 min, normalised to control = 100%, mean, at least 30 J2s
Description: as §1, §2

G. pallida J2s [6] = assay: Tomato invasion assay with uNLP pre-treated J2s; format: in vivo, Globodera pallida; conditions: Fig 2B; 500 J2s incubated in 100 μM uNLP for 24 h; single tomato seedling, 24 h at 18°C; normalised to negative control = 100%; mean
Description: as §1, §4

AAENFDENNDIN [Mi-NLP-18d, predicted unamidated NLP of M. incognita, synthesised]
effect on serotonergic-induced stylet thrusting (in words) (M. incognita J2s [1]): agonise serotonergic stylet thrusting
% Thrusting (M. incognita J2s [1]): 147.70%
effect on chemosensation (in words) (M. incognita J2s [2]): no negative impact on J2 chemosensory ability
effect on host invasion (in words) (M. incognita J2s [3]): reduce host invasion rates
% Invasion (M. incognita J2s [3]): 34.21%

AFDLFTGPGFTGMD [Gp-NLP-15h, predicted unamidated NLP of G. pallida, synthesised]
CI score (G. pallida J2s [4]): -0.06784

AFDRLDNSFMLL [Mi-NLP-8d, predicted unamidated NLP of M. incognita, synthesised]
% Invasion (M. incognita J2s [3]): 29.31%

AFDRLDVSPFDFDAMT [Mi-NLP-8a, predicted unamidated NLP of M. incognita, synthesised]
% Thrusting (M. incognita J2s [1]): 126.10%
CI score (M. incognita J2s [2]): 0.018

AFDSFAGNGFTGFD [Mi-NLP-15f, predicted unamidated NLP of M. incognita, synthesised]
effect on serotonergic-induced stylet thrusting (in words) (M. incognita J2s [1]): reduces stylet thrusting rate
% Thrusting (M. incognita J2s [1]): 75.18%
effect on chemosensation (in words) (M. incognita J2s [2]): inhibit chemosensation
CI score (M. incognita J2s [2]): -0.05
effect on host invasion (in words) (M. incognita J2s [3]): does not impact on host invasion

AFDSFGTPGFTGFD [Mi-NLP-15a, predicted unamidated NLP of M. incognita, synthesised]
effect on chemosensation (in words) (M. incognita J2s [2]): inhibit chemosensation
CI score (M. incognita J2s [2]): -0.01067

AFDSFTGPGFTGMD [Gp-NLP-15g, predicted unamidated NLP of G. pallida, synthesised]
CI score (G. pallida J2s [4]): -0.2208

AGARAFQRPDFDDASYEL [Mi-NLP-9a, predicted unamidated NLP of M. incognita, synthesised]
% Invasion (M. incognita J2s [3]): 45.59%

AGGRLFRMVDLPDGDDFVPEG [Gp-NLP-21e, predicted unamidated NLP of G. pallida, synthesised]
CI score (G. pallida J2s [4]): -0.3804

ALDILDGDDFTGFS [Gp-NLP-14e, predicted unamidated NLP of G. pallida, synthesised]
CI score (G. pallida J2s [4]): -0.0641

ALDILESDDFGGF [Gp-NLP-14a, predicted unamidated NLP of G. pallida, synthesised]
CI score (G. pallida J2s [4]): -0.3765

ALDLMEGDGFGGGFD [Mi-NLP-14b, predicted unamidated NLP of M. incognita, synthesised]
CI score (M. incognita J2s [2]): -0.1155

ALDMLEGDDFIGMQ [Mi-NLP-14a, predicted unamidated NLP of M. incognita, synthesised]
effect on serotonergic-induced stylet thrusting (in words) (M. incognita J2s [1]): inhibition; also recorded: reduces stylet thrusting rate
% Thrusting (M. incognita J2s [1]): 61.60%
effect on host invasion (in words) (M. incognita J2s [3]): does inhibit host invasion
% Invasion (M. incognita J2s [3]): 44.61%

ALDMMEGDDFIGL [Mi-NLP-14c, predicted unamidated NLP of M. incognita, synthesised]
effect on serotonergic-induced stylet thrusting (in words) (M. incognita J2s [1]): excitation; also recorded: agonise serotonergic stylet thrusting
% Thrusting (M. incognita J2s [1]): 134.70%
effect on chemosensation (in words) (M. incognita J2s [2]): no negative impact on J2 chemosensory ability
effect on host invasion (in words) (M. incognita J2s [3]): reduce host invasion rates
% Invasion (M. incognita J2s [3]): 20.96%

FAPRQFAFA [Mi-NLP-18a, predicted unamidated NLP of M. incognita, synthesised]
effect on chemosensation (in words) (M. incognita J2s [2]): inhibited
CI score (M. incognita J2s [2]): -0.1353
effect on host invasion (in words) (M. incognita J2s [3]): inhibited
% Invasion (M. incognita J2s [3]): 25.88%

FNDDELSSLPFNFEYFPSLDTH [Mi-NLP-8b, predicted unamidated NLP of M. incognita, synthesised]
% Invasion (M. incognita J2s [3]): 61.38%

GGARAFAKLEE [Mi-NLP-9c, predicted unamidated NLP of M. incognita, synthesised]
% Thrusting (M. incognita J2s [1]): 143.20%

GGARAFFGDADGPFNSASYWAP [Gp-NLP-21h, predicted unamidated NLP of G. pallida, synthesised]
effect on serotonergic-induced stylet thrusting (in words) (G. pallida J2s [5]): modulating stylet thrusting rates
% Thrusting (G. pallida J2s [5]): 116.80%
effect on chemosensation (in words) (G. pallida J2s [4]): inhibit chemosensation
CI score (G. pallida J2s [4]): -0.01564

GGARAFNFFAPPDE [Gp-NLP-21a, predicted unamidated NLP of G. pallida, synthesised]
% Invasion (G. pallida J2s [6]): 178.90%

GGARAFNGAEETLLNVANLA [Gp-NLP-21i, predicted unamidated NLP of G. pallida, synthesised]
effect on serotonergic-induced stylet thrusting (in words) (G. pallida J2s [5]): modulating stylet thrusting rates
% Thrusting (G. pallida J2s [5]): 117.70%
effect on chemosensation (in words) (G. pallida J2s [4]): inhibit chemosensation
CI score (G. pallida J2s [4]): -0.1733

GGARPFYGFFGGGEGTW [Mi-NLP-9e, predicted unamidated NLP of M. incognita, synthesised]
% Invasion (M. incognita J2s [3]): 48.68%

GGARPFYGGGYMDGTW [Gp-NLP-21f, predicted unamidated NLP of G. pallida, synthesised]
CI score (G. pallida J2s [4]): 0.1456

GGARTFLVGE [Mi-NLP-9b, predicted unamidated NLP of M. incognita, synthesised]
effect on chemosensation (in words) (M. incognita J2s [2]): inhibit chemosensation
CI score (M. incognita J2s [2]): -0.07417

GGTRAFNFFVSDALPSSYE [Gp-NLP-21c, predicted unamidated NLP of G. pallida, synthesised]
% Invasion (G. pallida J2s [6]): 14.07%

GMRNFAFA [Mi-NLP-18b, predicted unamidated NLP of M. incognita, synthesised]
effect on serotonergic-induced stylet thrusting (in words) (M. incognita J2s [1]): agonise serotonergic stylet thrusting
% Thrusting (M. incognita J2s [1]): 146.60%
effect on chemosensation (in words) (M. incognita J2s [2]): no negative impact on J2 chemosensory ability
effect on host invasion (in words) (M. incognita J2s [3]): reduce host invasion rates
% Invasion (M. incognita J2s [3]): 47.81%

SAFDSFVGRGFTGMD [Mi-NLP-15e, predicted unamidated NLP of M. incognita, synthesised]
effect on chemosensation (in words) (M. incognita J2s [2]): inhibit chemosensation
CI score (M. incognita J2s [2]): -0.01767
% Invasion (M. incognita J2s [3]): 38.71%

SFDSFTGSGFTGLD [Gp-NLP-15c, predicted unamidated NLP of G. pallida, synthesised]
effect on serotonergic-induced stylet thrusting (in words) (G. pallida J2s [5]): modulating stylet thrusting rates
% Thrusting (G. pallida J2s [5]): 56.07%
effect on chemosensation (in words) (G. pallida J2s [4]): inhibit chemosensation
CI score (G. pallida J2s [4]): -0.227

SFDSFVGKGFTGMD [Mi-NLP-15c, predicted unamidated NLP of M. incognita, synthesised]
effect on chemosensation (in words) (M. incognita J2s [2]): inhibit chemosensation
CI score (M. incognita J2s [2]): -0.359

SFDSLTGPGFTGLDT [Gp-NLP-15a, predicted unamidated NLP of G. pallida, synthesised]
CI score (G. pallida J2s [4]): -0.1451

SFGDYPFGSRTFAFA [Mi-NLP-18c, predicted unamidated NLP of M. incognita, synthesised]
% Thrusting (M. incognita J2s [1]): 175.50%

SSLASGRIGFRPA [Mi-NLP-2, predicted unamidated NLP of M. incognita, synthesised]
% Thrusting (M. incognita J2s [1]): 164.40%

SSQFGGENSFARFAFA [Mi-NLP-18e, predicted unamidated NLP of M. incognita, synthesised]
% Invasion (M. incognita J2s [3]): 46.49%
